Experimental data taken from patent US11096977B2, “Development of a standardized and effect-optimized herbal extract of Wedelia chinensis and its use for treating disease” (Academia Sinica, priority 2015, dated 2021).

Key:
PC-3 cells = experiment: CyQUANT direct cell proliferation assay, PC-3; assay type: cell-based; conditions: WCE 25 μg/ml or 10 nM docetaxel, 48 h
Protocol: (§1) After 48 h, viable cell numbers were determined using CyQUANT direct cell proliferation assay.

DU145 cells = experiment: CyQUANT direct cell proliferation assay, DU145; assay type: cell-based; conditions: WCE 25 μg/ml or 10 nM docetaxel, 48 h
Protocol: as §1

[1] = tested on: PC-3 AR-negative prostate cancer cells; experiment: murine model for androgen independent prostate cancer, orthotopic PC-3 luciferase cells; assay type: in vivo, mice; conditions: daily WCE by gavage, weekly docetaxel into tail vein; 8 week course
Protocol: Tumor growth was measured weekly by bioluminescent imaging. Animals were also weighed weekly.

LNCaP cells = experiment: growth rate of LNCaP cells; assay type: cell-based; conditions: 20 μg/ml enzalutamide
LNCaP-CR cells = experiment: growth rate of LNCaP-CR cells; assay type: cell-based; conditions: 20 μg/ml enzalutamide

CC(=O)O[C@@]12CO[C@@H]1C[C@H](O)[C@@]1(C)C(=O)[C@H](O)C3=C(C)[C@@H](OC(=O)[C@H](O)[C@@H](NC(=O)OC(C)(C)C)c4ccccc4)C[C@@](O)([C@@H](OC(=O)c4ccccc4)[C@H]21)C3(C)C [docetaxel]
growth of PC-3 cells (FIG. 3A) (PC-3 cells): inhibited growth
growth of DU145 cells (FIG. 3B) (DU145 cells): inhibited growth
body weight (FIG. 4B) [1]: large decrease in body weight

CNC(=O)c1ccc(N2C(=S)N(c3ccc(C#N)c(C(F)(F)F)c3)C(=O)C2(C)C)cc1F [enzalutamide]
growth of LNCaP cells (FIG. 2C) (LNCaP cells): significantly inhibited the growth
growth of LNCaP-CR cells (FIG. 2D) (LNCaP-CR cells): significantly less growth inhibition
